The values below come from patent US4624956A, “Ulcer and gastric secretion inhibiting 4,5,6,7-tetrahydrothiazole[5,4-c]pyridine derivatives” (priority 1983, dated 1986).

Where a name gives a salt, the structure may show the parent alone.

For series [1], the system named is oxotremorine syndrome in the mouse. The settings on record: for Anticholinergic activ. (antagonism against oxotremorine syndrome): in vivo, po, 100 mg/kg. The procedure: (§1) Considering that some anti-ulcer agents display, as does atropine, a remarkable but undesired anticholinergic activity, the compound of the present invention was also assessed for its antagonism against the syndrome induced by intraperitoneally (i.p.) administered oxotremorine in mice, according to the method described by G. P. Leszkovsky and L. Tardos (Europ. J. Pharmac. 1971, 15, 310). Given test compound embodiments were administered to groups of 5 male mice, 20-25 g body weight, at the screening dose of 100 mg/kg per os. The degree of peripheral cholinergic activation induced by oxotremorine was measured b salivation and lachrymation, and the degree of central cholinergic activation by the severity of tremors and hypothermia. […] The approximate acute toxicity (LD50) of the compounds of the invention was determined in the mouse and in the rat by single oral administration of increasing doses and measured on the seventh day after treatment. […] Ranitidine, the well known anti-ulcer agent, was used as comparison compound.

The test system of series [2] is ASA induced gastric ulcers in rats. The series can be described thus: inhibition of acetyl salicyclic acid (ASA) induced gastric ulcers in rats. The class given is in vivo, rat (male Sprague Dawley). The settings on record: po, 4 h, rat, p.o. 60 min before ASA 100 mg/kg, dose reducing ulcer index by 50%. The protocol:
The anti-ulcerogenic activity of the present compound is shown, for example, by the fact that embodiments of the present compound are active in the test of inhibition of acetyl salicyclic acid (ASA) induced gastric ulcers in rats as described by M. Hemmati et al in Pharmacology, 9, 374, 1973. Male Sprague Dawley rats [Crl: CD (SD) BR] (Charles River Italy) weighing 190±10 g, which had fasted for 15 hours, but given free access to water, were administered ASA (100 mg/kg per os in 0.2 ml/100 g b.w.) 60 minutes after the oral treatment with the tested compounds. Gastric ulcerations were evaluated 4 hours after ASA treatment. The inhibition of gastric ulcerations, evaluated as percentage inhibition of ulcer index (sum of ulcer length in millimeters), was expressed as ED50 (dose which reduces gastric ulcerations by 50% in comparison with control rats).

For series [3], the system named is basal gastric secretion output HCl. The experiment in a line: gastric anti-secretory activity in rats, pylorus ligature technique. In kind it is in vivo, rat (Sprague-Dawley male). Particulars: Column 4, rat, intraduodenal (i.d.), 4 hours, read-out: Antisecretory activ.: inhibition of basal gastric secretion output HCl (ED50). The procedure: The gastric anti-secretory activity of the compound of the present invention was evaluated in rats by the pylorus ligature technique (H. Shay et al, Gastroenterology 5, 43 1945). Six Sprague-Dawley male rats (110-130 g body weight) for each group were used. Twenty-four hours before the test, the rats were deprived of food while water was maintained. On the day of operation, the pylorus was ligated under light ether anaesthesia. Four hours after the ligature the rats were sacrificed, the stomach secretion collected, centrifuged at 3500 r.p.m. for 10 minutes and the volume, less sediment, was determined. The amount of free hydrochloric acid in the gastric juice was determined by titration against 0.1N sodium hydroxide to an end point of pH 7. All the compounds were injected intraduodenally at the time of ligature. The results, expressed as ED50 mg/kg (the dose which reduced the output of hydrochloride acid by 50% in comparison with control rats) are reported in column 4 of Table 1.

Series [4] can be described thus: approximate acute toxicity (LD50) in the mouse, single oral administration. Particulars: in vivo. The procedure:
as §1

In series [5] the test system is gastric ulcers induced in rats by stress. The experiment in a line: inhibition of stress ulcers in rats (restraint in water at 23° C. for 4 hours). In kind it is in vivo, rat (Charles River male). The settings on record: po, rat, p.o. one hour before stress, number of ulcers. The protocol: The anti-ulcerogenic activity of the compound of the present invention is shown also by the fact that embodiments of the same are active in the test of inhibition of stress ulcers in rats (restraint in water at 23° C. for 4 hours), according to the method of M. Usardi et al. (Prostaglandins, 8, 43, 1974). The tested compounds were administered per os one hour before the stress. Six Charles River male rats (140±10 g body weight), which had fasted for 16 hours, were used for each experimental group. At the end of the stress, the rats were killed and the gastric ulcers evaluated by counting them. The inhibition of gastric ulcerations, evaluated as percentage inhibition of ulcer index (number of ulcers), was expressed as ED50.

The target of a further series is T1, histamine H2-receptor (Cavia porcellus, UniProt P47747).
T1 construct: histamine-induced rate increase
The experiment in a line: histamine H2-receptor antagonist activity in vitro on the guinea pig right atrium. Particulars: Column 5; guinea pig atria in vitro; screening dose 1 × 10^-5 M; 'More active' continues 'than Ranitid.'; active if it shifts histamine curve right at ≤1×10^-5 M. The protocol: The compound of the present invention was assayed for histamine H2 -receptor antagonist activity in vitro on the guinea pig right atrium. Male guinea pigs were killed by a blow on the head and the heart was quickly excised and placed in oxygenated Ringer Lock solution of the following composition (g/l): NaCl 9, KCl 0.42, CaCl2 0.24, NaHCO3 0.5, Glucose 1. Atria were dissected away from the rest of the heart, freed from connective tissue, suspended in a 20 ml organ bath containing Ringer Locke solution thermoregulated at 37° C., and carboxygenated with 95% O2 and 5% CO2. Atria spontaneously beating were allowed to adjust to the bath conditions for at least 30 minutes prior to the experiment. Histamine was added to the bath in cumulative fashion starting from 3×10^-7 M to 1×10^-4 M. The histamine-induced increase in atrial rate was allowed to plateau before the next successive concentration was added. After washing and waiting for the recovery of atria rate, a compound was added 5 minutes before repeating the cumulative dose response curve with histamine. A compound is considered an H2 -receptor antagonist if it is able to shift the dose response curve of histamine to the right at a concentration ≤1×10^-5 M. The results are reported in column 5 of Table 1.

A short description of series [6]: approximate acute toxicity (LD50) in the rat, single oral administration. Particulars: in vivo. The procedure: as §1
The test system of series [7] is duodenal ulcers induced in rats by cysteamine. The series can be described thus: inhibition of duodenal ulcers induced in rats by cysteamine. Particulars: po, rat. The class given is in vivo. The protocol: The inhibition of duodenal ulcers, induced in rats by cysteamine, was evaluated for the tested compounds as percentage inhibition of ulcer index [sum of the lesioned areas per rat (mm^2)] according to the method of Fujii Y. et al, Jap. J. Pharm. 25, 663, 1975, and expressed as ED50.

T1 sequence (P47747 whole entry): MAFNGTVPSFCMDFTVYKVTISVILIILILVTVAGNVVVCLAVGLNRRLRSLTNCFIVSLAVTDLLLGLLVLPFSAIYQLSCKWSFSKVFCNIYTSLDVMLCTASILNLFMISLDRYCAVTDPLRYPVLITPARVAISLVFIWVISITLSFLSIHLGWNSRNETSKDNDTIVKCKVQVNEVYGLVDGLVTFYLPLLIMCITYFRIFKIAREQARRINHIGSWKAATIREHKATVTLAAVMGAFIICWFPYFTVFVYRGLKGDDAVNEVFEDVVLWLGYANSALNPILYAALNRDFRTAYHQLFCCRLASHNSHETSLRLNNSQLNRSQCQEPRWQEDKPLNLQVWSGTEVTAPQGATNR

With `CN1[C@@H]2CC[C@H]1C[C@@H](OC(=O)C(CO)c1ccccc1)C2` (stereo partly shown) [Atropine sulfate, reference compound], the “peripheral and central effects induced by oxotremorine” value in series [1] (oxotremorine i.p., dose of atropine sulfate not given) is “suppressed both peripheral and central effects”.

Regarding `CC(C)NC(=S)N1CCc2nc(N)sc2C1` [Example 2, 2-Amino-5-(isopropyl-thiocarbamoyl)-4,5,6,7-tetrahydrothiazolo[5,4-c]pyridine], the figures for the ED50 in series [2], in series [3] and in series [5] were roughly 5 mg/kg, 1 mg/kg and 2.7 mg/kg, respectively. In addition, the “Anticholinergic activ. (antagonism against oxotremorine syndrome)” value in series [1] is “Inactive”. Besides, in series [4], the LD50 at 168 h is 400 to 800 mg/kg.

With `CNC(=O)N1CCc2nc(N)sc2C1` [Example 5, 2-Amino-5-(methyl-carbamoyl)-4,5,6,7-tetrahydrothiazolo[5,4-c]pyridine], the ED50 in series [2] is 1.2 mg/kg; in series [3], greater than 5 mg/kg; in series [5], greater than 25 mg/kg. In series [1], the “Anticholinergic activ. (antagonism against oxotremorine syndrome)” value is given as “Inactive”. The molecule also returned an LD50 at 168 h in series [4] of 200 to 400 mg/kg.

In the case of `CC(C)NC(=S)N1CCc2nc(NC(=N)N)sc2C1` [Example 15, 2-Guanidino-5-(isopropyl-thiocarbamoyl)-4,5,6,7-tetrahydrothiazolo[5,4-c]pyridine], the results for the ED50 in series [2], in series [3] and in series [5] were 0.5 mg/kg, less than 5 mg/kg and less than 50 mg/kg, respectively. Also, the Anti-H2 activ. result at histamine H2-receptor is “Active”. The “Anticholinergic activ. (antagonism against oxotremorine syndrome)” value in series [1] is given as “Inactive”. This molecule gave an LD50 at 168 h in series [4] of 400 to 800 mg/kg.

In the case of `CC(C)NC(=O)N1CCc2nc(NC(=N)N)sc2C1` [Example 16, 2-Guanidino-5-(isopropyl-carbamoyl)-4,5,6,7-tetrahydrothiazolo[5,4-c]pyridine], the ED50 in series [2] came out at 0.017 mg/kg; in series [3], 0.33 mg/kg; in series [7] it was 0.4 mg/kg; in series [5], 2.9 mg/kg. Besides, the Anti-H2 activ. result at histamine H2-receptor is listed as “More active”. In addition, the values for the LD50 at 168 h in series [6] and in series [4] were greater than 800 mg/kg and 200 to 400 mg/kg, respectively. Also, the “Anticholinergic activ. (antagonism against oxotremorine syndrome)” value in series [1] was “Inactive”.

Take `N=C(N)Nc1nc2c(s1)CN(C(=O)NC1CC1)CC2` [Example 22, 2-Guanidino-5-(cyclopropyl-carbamoyl)-4,5,6,7-tetrahydrothiazolo[5,4,-c]pyridine]: the ED50 in series [2] is 0.08 mg/kg; in series [3] it was 1.7 mg/kg; in series [7] it was 0.3 mg/kg; in series [5], 20.2 mg/kg. The Anti-H2 activ. entry on histamine H2-receptor is on record as “More active”. In addition, the LD50 at 168 h in series [6] and in series [4] was greater than 800 mg/kg in each case. Besides, the “Anticholinergic activ. (antagonism against oxotremorine syndrome)” value in series [1] is given as “Inactive”.

As for `CNC(=C[N+](=O)[O-])NCCSCc1ccc(CN(C)C)o1` [Ranitidine, reference compound], the ED50 in series [2] is 0.5 mg/kg; in series [3], 7 mg/kg; in series [7], 10.7 mg/kg; in series [5] it was 6.2 mg/kg. In addition, the LD50 at 168 h in series [6] and in series [4] was greater than 800 mg/kg in each case. Besides, the “Anticholinergic activ. (antagonism against oxotremorine syndrome)” value in series [1] is listed as “Inactive”.

As a reminder, the ED50 is the midpoint of the dose-response relation. In general, LD50 refers to the dose expected to kill half of the subjects tested.
